Reference: patent US20250235457A1, “METHODS AND COMPOSITIONS FOR TREATING CDKL5 DISORDER USING ALLOPURINOL” (priority 2024, published 2025)

Assays:
[1] = test system: patient with CDKL5 deficiency disorder (CDD); test: Off-label allopurinol treatment of a pediatric patient with CDD (case); assay type: in vivo, human
Text: CDD is a severe neurodevelopmental disorder characterized by treatment-resistant epilepsy, profound developmental delays, and significant motor impairments.
The patient presented with severe developmental delays since birth and had never met motor or speech milestones. […] The patient also experienced frequent, uncontrolled seizures despite being on a ketogenic diet and receiving physical, occupational, speech, and vision therapies. Their seizures were refractory to multiple anti-epileptic drugs (AEDs), including Keppra, Epidiolex, Soticlestat, Clonazepam, Sabril, Phenobarbital, and Oxcarbazepine.
Baseline assessments conducted prior to treatment initiation included a review of medical history, physical examination, laboratory tests, and functional evaluations.
Allopurinol was prescribed as an adjunct therapy to the patient's existing seizure management regimen without modifications to their ongoing AED treatments or dietary plan. The treatment protocol involved administering allopurinol at a dose of 100 mg per day, divided into two doses of 50 mg with lunch and 50 mg with dinner. The patient's progress was monitored over a 24-week period, unless adverse events necessitated an adjustment or discontinuation of the treatment. Caregivers maintained a daily diary to document seizure frequency, duration, and type, as well as changes in behavior, communication attempts, motor abilities, urine output, and general health.
Clinical assessments were conducted every four weeks, either virtually or in-person, to monitor safety and efficacy. Laboratory tests were performed every six weeks to evaluate uric acid levels, urinalysis, complete blood count (“CBC”), blood sugar levels, and other relevant indicators. EEG assessments were conducted at baseline, at eight-week intervals, and at the end of the study to evaluate changes in seizure activity and brain function. Regular evaluations by a pediatric neuro-ophthalmologist were included to assess visual and neurological health.
During the study, therapeutic interventions such as speech therapy, physical therapy, and the use of augmentative and alternative communication (AAC) devices were continued. Specific goals included improving functional communication through AAC, enhancing motor control, and increasing engagement with therapy activities. Progress in these areas was tracked alongside clinical outcomes to assess the comprehensive impact of allopurinol on the patient's quality of life.
At the time of treatment initiation, the patient weighed 18 kg. […] The end-of-study assessment included a final medical evaluation, EEG, laboratory tests, and a review of therapy outcomes to measure the safety and efficacy of allopurinol as a treatment for CDD.

[2] = test system: CDKL2 and GluN2B subunits in the hippocampal and cortical regions; test: Histological / immunohistochemical analysis of brain tissue of CDKL5 Het mice; assay type: in vivo; conditions: treated animals, 30 mg/kg/day
Procedure: In addition to the clinical trial, a preclinical animal study was conducted using a mouse model of CDKL5 disorder (CDKL5 Het female mice). A total of eight mice were included in the study, with four receiving treatment and four serving as untreated controls. All mice were housed under standard laboratory conditions with a 12-hour light/dark cycle and ad libitum access to food and water. The treatment protocol involved the oral administration of allopurinol dissolved in drinking water at a target dose of 30 mg/kg/day. The solution was prepared in phosphate-buffered saline (PBS) with a concentration of 0.1 mg/mL allopurinol in a 1:10 solution of dimethyl sulfoxide (DMSO):PBS (pH 7.2). Control animals received an identical solution without allopurinol. Seizure activity was monitored daily throughout the study, with seizure severity and duration recorded using both video and electroencephalogram assessments. At the end of the study, brain tissue from both treated and untreated animals was collected for histological analysis, specifically to assess the expression of CDKL2 and GluN2B subunits in the hippocampal and cortical regions. Immunohistochemical staining was used to visualize the localization and abundance of these proteins. Data from the seizure monitoring were analyzed using an unpaired t-test, and histological data were quantified using image analysis software. […]

[3] = test system: EB2 (MAPRE2) phosphorylation at phospho-Serine 222; test: Western blot of EB2 phosphorylation in brain tissue of CDKL5-deficient mice; conditions: 10 days
CDKL5-deficient mice [4] = test: Hind limb clasping test; assay type: in vivo; conditions: Het CDKL5-deficient mice before vs after treatment, 5 and 10 days oral (FIG. 9)
Procedure: The hind limb clasping test was performed to assess motor function and neurological impairments in CDKL5-deficient mouse models before and after treatment with allopurinol. […] Mice were suspended by their tails for a duration of 2 minutes, and hind limb retraction behavior (referred to as clasping) was recorded. Video recordings were analyzed to determine total clasping time during the test. Each mouse was evaluated using a standardized scoring system based on the severity of hind limb clasping behavior: • 0. No limb clasping observed. • 1.
Testing was conducted at baseline (pre-treatment) and at 5 and 10 days following oral administration of allopurinol. The hind limb clasping scores were averaged for each group, and the results were analyzed to assess changes in motor impairments following treatment.

CDKL5-deficient mice [5] = test: Marble burying test
[6] = 1:10 solution of DMSO:PBS (pH 7.2); 'believed to be approximately'; cited from earlier work
CDKL2 = test: qPCR of CDKL2 expression in the treated patient; assay type: in vivo, human
[7] = test system: pediatric patients diagnosed with CDKL5 disorder; test: Prospective open-label clinical trial in pediatric patients with CDKL5 disorder; assay type: in vivo, human
Procedure: For the clinical trial, a prospective, open-label study was conducted between Aug. 1, 2023, and May 1, 2024, to evaluate the efficacy of allopurinol in pediatric patients diagnosed with CDKL5 disorder. The trial enrolled eight patients, aged 2 to 10 years, with a confirmed diagnosis of CDKL5 disorder and ongoing epilepsy that was resistant to conventional anti-epileptic drugs. Patients were required to have a stable seizure regimen for at least four weeks prior to participation. Those with a history of severe allergic reactions to allopurinol or other contraindicating medical conditions were excluded from the study. All patients were treated with allopurinol as an adjunct therapy to their existing anti-epileptic drug regimen, with the starting dose set at 10 mg/kg/day, administered orally in divided doses (twice daily, BID). The dosage was adjusted based on individual tolerability, and all treatment was closely supervised by a pediatric neurologist specializing in seizure disorders. Seizure frequency and severity were assessed at baseline and then at 4-week intervals throughout the 9-month study period. The primary endpoint of the study was the reduction in the frequency of major motor seizures, which was assessed using patient diaries and caregiver reports. Secondary endpoints included the severity of seizures (measured by the Modified Rankin Scale), overall neurological improvement, and quality of life, evaluated using the CDKL5 Disorder Disease-Specific Quality of Life (CDKL5-QoL) questionnaire. Statistical analysis was performed using paired t-tests to compare seizure frequency data between baseline and post-treatment periods, with a significance level set at p<0.05.

[8] = test system: phosphorylation of key synaptic proteins, including EB2 (MAPRE2); test: Neuronal cultures derived from CDKL5-deficient models; assay type: cell-based
CDKL5 Het female mice = test: Seizure monitoring (video and EEG) in CDKL5 Het female mice; assay type: in vivo; conditions: 30 mg/kg/day in drinking water, treated vs untreated controls
Text: A p-value of <0.05 was considered statistically significant.

[9] = 100 mg per day, 24-week study period

Compound: Oc1ncnc2[nH]ncc12 [allopurinol]
- EEG background activity ([1]; 100 mg per day adjunct, with a reduction in epileptic discharges): marked improvement
- adverse effects [1, 9]: No adverse effects were reported
- tolerability [1, 9]: well tolerated
- CDKL5 Severity Scale Part 3 (Caregiver Report) ([1]; 3 months after treatment, before treatment 1, lower desirable): 0
- CDKL5 Severity Scale Part 6 (Motor Skills) ([1]; 3 months after treatment, before treatment 2, higher desirable): 4
- CDKL5 Severity Scale Part 4 (Clinician Report) ([1]; 3 months after treatment, before treatment 25, lower desirable): 25
- CDKL5 Severity Scale Part 2 (Seizure Activity) ([1]; 3 months after treatment, before treatment 29, lower desirable): 29
- CDKL5 Severity Scale Part 1 (General Health) ([1]; 3 months after treatment, before treatment 32, lower desirable): 21
- CDKL5 Severity Scale Total Score ([1]; 3 months after treatment, before treatment 104): 69
- CDKL5 Severity Scale Part 5 (Behavioral Skills) ([1]; 3 months after treatment, before treatment −1, higher desirable): 8
- seizure status ([1]; person, 100 mg per day adjunct, after 3 months): completely seizure-free
- quality of life (observational) ([1]; qualitative observational data): reduced sleep disturbances, improved saliva control, and decreased caregiver burden
- cognitive and motor functions ([1]; therapist and caregiver observation): notable gains in cognitive and motor functions
- CDKL2 expression in the hippocampal and cortical regions [2]: notable increase in CDKL2 expression
- GluN2B subunit mislocalization [2]: partially corrected
- phosphorylated EB2 isoforms 1 and 2 at ps222 ([3]; Het female mice brain, 30 mg/kg/day, vs untreated controls, not statistically significant (FIG. 2)): trend towards increased phosphorylation
- phosphorylated EB2 isoform 3 at ps222 ([3]; Het female mice brain, 30 mg/kg/day, did not reach statistical significance (FIG. 3)): trend toward increased phosphorylation
- EB2 phosphorylation levels ([3]; KO male and Het female mice, 30 mg/kg/day in drinking water): increased EB2 phosphorylation levels
- hind limb clasping behavior (CDKL5-deficient mice [4]): significant reduction in hind limb clasping behavior
- marble burying capacity (CDKL5-deficient mice [5]; Het mice treated vs untreated Het mice, 30 mg/kg/day oral (FIG. 8)): improvement in marble burying capacity
- crossing of the blood brain barrier (CDKL5-deficient mice [5]; inferred from the behavioral findings in CDKL5-deficient mice): crosses the blood brain barrier
- solubility [6]: approximately 0.1 mg/ml
- patient's CDKL2 expression level (CDKL2; control group mean 5.44307×10^−6 (±2.26749×10^−6)): 1.7356×10^−5 (±1.302×10^−6)
- increase in the expression of CDKL2 vs healthy donor controls (CDKL2; treated patient compared to healthy donor controls): 3 fold
- patients demonstrating a decrease in seizure severity by at least one grade (Modified Rankin Scale) ([7]; 10 mg/kg/day): 75 % of patients
- patients reporting improvements in sleep patterns, motor skills, and cognitive function (CDKL5-QoL) ([7]; 10 mg/kg/day): 87.5 % of patients
- speech and motor delays ([7]; clinical trial conclusions): did not show marked improvements
- mean reduction in major motor seizures ([7]; eight patients aged 2 to 10 years, 10 mg/kg/day oral BID adjunct, 9 months, baseline on average 12 times per week): 63.2%
- phosphorylation of key synaptic proteins, including EB2 (MAPRE2) [8]: increased phosphorylation
- reduction in seizure duration (CDKL5 Het female mice): 65%
- reduction in seizure severity (CDKL5 Het female mice): 72.5%
